Source: patent publication US20240034731A1, “AZA-QUINAZOLINE COMPOUNDS AND METHODS OF USE” (Iambic Therapeutics, Inc., priority 2022, published 2024)
Where two headings read alike, the source gives them in different places.

Tests used:
CDK1/Cyclin B1 = CDK1/Cyclin B1 (Homo sapiens (Human), UniProt P06493); assay: CDK1/Cyclin B1 ADP-Glo Kinase Assay; type: biochemical
Outline: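 ADP-Glo luminescent readout of ADP production, with IC50 fitted by a four-parameter equation to fractional velocity against inhibitor concentration. Reaction started with ATP-containing substrate after a 30-minute enzyme–inhibitor pre-incubation and stopped after 90 minutes, both at room temperature.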

CDK2/Cyclin E1 = CDK2/Cyclin E1 (Homo sapiens (Human), UniProt P24941); assay: CDK2/Cyclin E1 Full length ADP-Glo Kinase Assay; type: biochemical; settings: 20 uM ATP, read-out: CDK2/ CyclinE1 IC50
Outline: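 ADP-Glo luminescence (ATP depletion, then ADP-to-light conversion) quantified kinase turnover after a 90 min room-temperature reaction started by ATP/substrate, following 30 min enzyme–inhibitor preincubation. Enzyme: full-length CDK2/cyclin E1; IC50 fitted with a four-parameter equation on fractional velocity.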

CDK4/Cyclin D1 [1] = biological target: T1, CDK4/Cyclin D1 (Homo sapiens (Human), UniProt P11802); assay: CDK4/Cyclin D1 Mobility Shift Assay (MSA); type: biochemical; settings: 0.2 mM ATP, read-out: CDK4/ CyclinD1 MSA IC50
Source text: CDK4/Cyclin D1 Mobility Shift Assay (MSA)
The purpose CDK4/Cyclin D1 assay is to evaluate the inhibition (% inhibition and IC50 values) in the presence of small molecule inhibitors by using a fluorescence based microfluidic mobility shift assay. CDK4/Cyclin D1 catalyzes the production of ADP from ATP that accompanies the phosphoryl transfer to the substrate peptide 5-FAM-Dyrktide (5-FAM-[…]) (Perkin Elmer Peptide 34). The mobility shift assay (MSA) electrophoretically separates the fluorescently labelled peptides (substrate and phosphorylated product) following the kinase reaction. Both substrate and product are measured, and the ratio of these values is used to generate % conversion of substrate to product by the LabChip EZ Reader. Typical reaction solutions contained 2% DMSO (+/− inhibitor), 10 mM MgCl2, 1 mM EGTA, 0.05% BSA, 2 mM DTT, 0.2 mM ATP, 0.01% Brig-35, 1.5 uM 5-FAM-Dyrktide, 2.5 nM CDK4/Cyclin D1 in 50 mM HEPES buffer at pH 7.5. The reaction was initiated with the addition of substrate solution, following a 30-minute pre-incubation of enzyme and inhibitor at 22° C. in the reaction mix. The reaction was stopped after 180 minutes by the addition of 75 uL of 500 mM EDTA and measured on a Perkin Elmer EZ reader instrument. IC50 determinations were made from a plot of the fractional velocity as a function of inhibitor concentration fit to the 4 parameters IC50 equation.

CDK6/Cyclin D3 = CDK6/Cyclin D3 (Homo sapiens (Human), UniProt Q00534); assay: CDK6/Cyclin D3 ADP-Glo Kinase Assay; type: biochemical; settings: 100 uM ATP, read-out: CDK6/ CyclinD3 IC50
Outline: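 ADP-Glo luminescence measured ADP produced by CDK6/Cyclin D3 in a 90-min room-temperature reaction started with ATP-containing substrate, after 30-min enzyme–inhibitor pre-incubation. Fractional velocity was plotted against inhibitor concentration and fitted to a four-parameter IC50 model.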

CDK4/Cyclin D1 [2] = biological target: T1, CDK4/Cyclin D1; assay: CDK4/Cyclin D1 CHEF Assay (AQT0258 peptide); type: biochemical; settings: 200 uM ATP, read-out: CDK4/ CyclinD1 AQT IC50
Outline: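 Sox-labelled peptide AQT0258 phosphorylation read as chelation-enhanced fluorescence (ex 360/em 485 nm) with Mg(II). Enzyme preincubated with inhibitor 30 min at 22°C, substrate added, 3 h at 22°C; IC50 from four-parameter fit of fractional velocity versus inhibitor concentration.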

MCF-7 cells = assay: Cell Growth Inhibition, MCF-7 (CellTiterGlo, 6 days); type: cell-based; settings: Homo sapiens, MCF7, 144 h, MCF-7, 6-day treatment
Outline: (§1)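 IC50 from four-parameter, variable-slope fits of % growth inhibition, derived from CellTiterGlo 2.0 luminescence relative to control. Compounds, usually 10-10,000 nM in half-log steps, stayed 6 days at 37 °C, 5% CO2 with 500 MCF-7 or OVCAR-3 cells/well in 10% FBS RPMI.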

OVCAR-3 cells = assay: Cell Growth Inhibition, OVCAR-3 (CellTiterGlo, 6 days); type: cell-based; settings: Homo sapiens, 144 h, OVCAR-3, 6-day treatment
Outline: as §1

[3] = ADP-Glo, 80 uM ATP, read-out: CDK1 Cyclin B1 IC50

CDK6/Cyclin D3, sequence (Q00534 whole entry): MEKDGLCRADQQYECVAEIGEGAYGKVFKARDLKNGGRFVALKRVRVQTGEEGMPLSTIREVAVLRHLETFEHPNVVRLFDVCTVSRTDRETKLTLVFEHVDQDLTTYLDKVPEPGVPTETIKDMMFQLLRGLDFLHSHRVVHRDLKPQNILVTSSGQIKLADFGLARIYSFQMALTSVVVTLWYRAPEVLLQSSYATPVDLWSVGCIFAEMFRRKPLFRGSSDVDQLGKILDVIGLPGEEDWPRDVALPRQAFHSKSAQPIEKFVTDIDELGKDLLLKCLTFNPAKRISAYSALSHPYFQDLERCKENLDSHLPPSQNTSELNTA
CDK6/Cyclin D3, sequence (P30281 whole entry partner): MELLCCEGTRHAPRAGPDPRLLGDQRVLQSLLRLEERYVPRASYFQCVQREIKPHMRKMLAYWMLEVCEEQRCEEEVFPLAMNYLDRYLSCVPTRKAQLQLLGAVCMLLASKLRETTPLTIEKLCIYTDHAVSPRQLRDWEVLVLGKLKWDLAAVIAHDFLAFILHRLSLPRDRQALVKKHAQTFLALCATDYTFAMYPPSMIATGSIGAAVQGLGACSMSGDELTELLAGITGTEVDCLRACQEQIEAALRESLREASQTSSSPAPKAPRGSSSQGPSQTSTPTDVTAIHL
T1 sequence (P11802 whole entry): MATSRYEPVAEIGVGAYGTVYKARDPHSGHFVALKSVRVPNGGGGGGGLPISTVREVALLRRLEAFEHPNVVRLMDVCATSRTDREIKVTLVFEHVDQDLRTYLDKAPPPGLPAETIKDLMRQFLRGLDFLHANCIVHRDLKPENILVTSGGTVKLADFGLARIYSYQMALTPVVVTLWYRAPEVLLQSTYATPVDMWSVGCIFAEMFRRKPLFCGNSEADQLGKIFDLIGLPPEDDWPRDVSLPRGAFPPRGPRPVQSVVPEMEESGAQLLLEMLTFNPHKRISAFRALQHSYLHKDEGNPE
T1 sequence (P24385 whole entry partner): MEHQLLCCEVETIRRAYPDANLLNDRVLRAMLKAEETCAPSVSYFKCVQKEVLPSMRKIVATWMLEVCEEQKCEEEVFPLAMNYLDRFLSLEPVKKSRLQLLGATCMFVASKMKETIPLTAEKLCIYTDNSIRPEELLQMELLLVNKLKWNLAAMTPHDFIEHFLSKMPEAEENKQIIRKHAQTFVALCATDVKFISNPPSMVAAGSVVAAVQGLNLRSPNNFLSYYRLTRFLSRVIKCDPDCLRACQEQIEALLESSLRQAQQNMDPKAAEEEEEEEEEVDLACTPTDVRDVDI
CDK1/Cyclin B1, sequence (P06493 whole entry): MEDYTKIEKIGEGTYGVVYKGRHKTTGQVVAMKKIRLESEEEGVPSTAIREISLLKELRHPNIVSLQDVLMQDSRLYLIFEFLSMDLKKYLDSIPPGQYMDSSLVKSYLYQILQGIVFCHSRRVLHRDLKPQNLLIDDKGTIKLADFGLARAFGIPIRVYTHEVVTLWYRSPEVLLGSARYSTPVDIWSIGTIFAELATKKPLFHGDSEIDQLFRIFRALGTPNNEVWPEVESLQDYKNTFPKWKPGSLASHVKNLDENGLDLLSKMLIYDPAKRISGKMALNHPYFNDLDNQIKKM
CDK1/Cyclin B1, sequence (P14635 whole entry partner): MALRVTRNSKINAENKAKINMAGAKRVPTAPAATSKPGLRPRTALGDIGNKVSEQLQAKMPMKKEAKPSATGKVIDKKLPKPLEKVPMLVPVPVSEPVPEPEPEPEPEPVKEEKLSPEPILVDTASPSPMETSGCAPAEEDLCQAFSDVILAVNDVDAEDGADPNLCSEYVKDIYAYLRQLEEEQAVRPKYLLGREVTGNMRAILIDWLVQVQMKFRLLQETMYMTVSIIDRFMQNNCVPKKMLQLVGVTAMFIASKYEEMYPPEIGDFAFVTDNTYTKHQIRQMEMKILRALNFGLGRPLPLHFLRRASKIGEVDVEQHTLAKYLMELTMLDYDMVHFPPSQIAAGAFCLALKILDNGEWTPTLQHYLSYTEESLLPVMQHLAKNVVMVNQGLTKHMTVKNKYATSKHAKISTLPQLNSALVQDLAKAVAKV

Row | Structure (SMILES) | IC50 (CDK1/Cyclin B1; [3]) | IC50 (CDK2/Cyclin E1) | IC50 (CDK4/Cyclin D1 [1]) | IC50 (CDK6/Cyclin D3) | IC50 (CDK4/Cyclin D1 [2]) | IC50 (MCF-7 cells) | IC50 (OVCAR-3 cells) | IC50 (CDK1/Cyclin B1)
1 | CCN1CC2(C1)CN(c1ccc(Nc3ncc4ccnc(N5CCC6(C5)CC6(F)F)c4n3)nc1)C2 (stereo not shown) [Compound 21, 8-(1,1-difluoro-5-azaspiro[2.4]heptan-5-yl)-N-(5-(6-ethyl-2,6-diazaspiro[3.3]heptan-2-yl)pyridin-2-yl)pyrido[3,4-d]pyrimidin-2-amine] | > 2000 nM | 200 to 500 nM | < 200 nM | < 200 nM |  |  |  | 
2 | Cc1cc2cnc(NC3CCN(S(=O)(=O)c4cnn(C)c4)CC3)nc2c(N2CC(F)(F)C3(CNC3)C2)n1 [Compound 89, 8-(8,8-difluoro-2,6-diazaspiro[3.4]octan-6-yl)-6-methyl-N-(1-((1-methyl-1H-pyrazol-4-yl)sulfonyl)piperidin-4-yl)pyrido[3,4-d]pyrimidin-2-amine] | < 200 nM | < 200 nM |  | < 200 nM | < 200 nM | 500 to 2000 nM | 200 to 500 nM | 
3 | CS(=O)(=O)N1CCC(Nc2ncc3cc(C(F)F)nc(N4CC5(CCNCC5(F)F)C4)c3n2)CC1 [Compound 90, 8-(5,5-difluoro-2,7-diazaspiro[3.5]nonan-2-yl)-6-(difluoromethyl)-N-(1-(methylsulfonyl)piperidin-4-yl)pyrido[3,4-d]pyrimidin-2-amine] | < 200 nM | < 200 nM |  | < 200 nM | < 200 nM | 500 to 2000 nM | 500 to 2000 nM | 
4 | Cc1cc2cnc(NC3CCN(S(C)(=O)=O)CC3)nc2c(N2CC(O)(C(F)F)C2)n1 [Compound 91, 3-(difluoromethyl)-1-(6-methyl-2-((1-(methylsulfonyl)piperidin-4-yl)amino)pyrido[3,4-d]pyrimidin-8-yl)azetidin-3-ol] | < 200 nM | < 200 nM |  | < 200 nM | < 200 nM | 500 to 2000 nM | 200 to 500 nM | 
5 | Cc1cc2cnc(NC3CCN(S(C)(=O)=O)CC3)nc2c(N2CC(F)(F)C3(CNC3)C2)n1 [Compound 92, 8-(8,8-difluoro-2,6-diazaspiro[3.4]octan-6-yl)-6-methyl-N-(1-(methylsulfonyl)piperidin-4-yl)pyrido[3,4-d]pyrimidin-2-amine] | < 200 nM | < 200 nM |  | < 200 nM | < 200 nM | 500 to 2000 nM | 500 to 2000 nM | 
6 | Cc1cc2cnc(NC3CCN(S(C)(=O)=O)CC3)nc2c(C2CC(O)(C(F)F)C2)n1 (stereo not shown) [Compound 93, 1-(difluoromethyl)-3-(6-methyl-2-((1-(methylsulfonyl)piperidin-4-yl)amino)pyrido[3,4-d]pyrimidin-8-yl)cyclobutan-1-ol] | < 200 nM | < 200 nM |  | < 200 nM | < 200 nM | 500 to 2000 nM | 500 to 2000 nM | 
7 | Cc1cc2cnc(NC3CCN(S(=O)(=O)c4ccn(C)n4)CC3)nc2c(N2CC(F)(F)C3(CNC3)C2)n1 [Compound 94, 8-(8,8-difluoro-2,6-diazaspiro[3.4]octan-6-yl)-6-methyl-N-(1-((1-methyl-1H-pyrazol-3-yl)sulfonyl)piperidin-4-yl)pyrido[3,4-d]pyrimidin-2-amine] | < 200 nM | < 200 nM |  | < 200 nM | < 200 nM | 500 to 2000 nM | 200 to 500 nM | 
8 | CCS(=O)(=O)N1CCC(Nc2ncc3cc(C)nc(N4CC(F)(F)C5(CNC5)C4)c3n2)CC1 [Compound 95, 8-(8,8-difluoro-2,6-diazaspiro[3.4]octan-6-yl)-N-(1-(ethylsulfonyl)piperidin-4-yl)-6-methylpyrido[3,4-d]pyrimidin-2-amine] | < 200 nM | < 200 nM |  | < 200 nM | < 200 nM | 500 to 2000 nM | 500 to 2000 nM | 
9 | Cc1cc2cnc(NC3CCN(S(C)(=O)=O)CC3)nc2c(N2CC(F)(F)C3(CN(C)C3)C2)n1 [Compound 96, 8-(8,8-difluoro-2-methyl-2,6-diazaspiro[3.4]octan-6-yl)-6-methyl-N-(1-(methylsulfonyl)piperidin-4-yl)pyrido[3,4-d]pyrimidin-2-amine] | < 200 nM | < 200 nM |  | < 200 nM | < 200 nM | 200 to 500 nM | 500 to 2000 nM | 
10 | Cc1cc2cnc(NC3CCN(S(=O)(=O)c4cnn(C)c4)CC3)nc2c(N2CC(F)(F)C3(CN(C)C3)C2)n1 [Compound 97, 8-(8,8-difluoro-2-methyl-2,6-diazaspiro[3.4]octan-6-yl)-6-methyl-N-(1-((1-methyl-1H-pyrazol-4-yl)sulfonyl)piperidin-4-yl)pyrido[3,4-d]pyrimidin-2-amine] |  | < 200 nM |  | < 200 nM | < 200 nM | 500 to 2000 nM | 200 to 500 nM | < 200 nM
11 | [2H]C([2H])([2H])N1CC2(CN(c3nc(C)cc4cnc(NC5CCN(S(=O)(=O)c6cnn(C)c6)CC5)nc34)CC2(F)F)C1 [Example 11, 8-(8,8-difluoro-2-(methyl-d3)-2,6-diazaspiro[3.4]octan-6-yl)-6-methyl-N-(1-((1-methyl-1H-pyrazol-4-yl)sulfonyl)piperidin-4-yl)pyrido[3,4-d]pyrimidin-2-amine] |  | < 200 nM |  | < 200 nM | < 200 nM | 500 to 2000 nM | 200 to 500 nM | < 200 nM
12 | Cc1cc2cnc(NC3CCN(S(=O)(=O)C4CC4)CC3)nc2c(N2CC3(CCNC3)C2)n1 [Example 25, N-(1-(cyclopropylsulfonyl)piperidin-4-yl)-6-methyl-8-(2,6-diazaspiro[3.4]octan-2-yl)pyrido[3,4-d]pyrimidin-2-amine] | 200 to 500 nM | < 200 nM |  | < 200 nM | < 200 nM | 200 to 500 nM | 200 to 500 nM | 
13 | Cc1cc2cnc(Nc3cc4c(cc3F)CN(S(C)(=O)=O)C4)nc2c(N2CC3(CCNC3)C2)n1 [Example 39, N-(6-fluoro-2-(methylsulfonyl)isoindolin-5-yl)-6-methyl-8-(2,6-diazaspiro [3.4]octan-2-yl)pyrido[3,4-d]pyrimidin-2-amine] | > 2000 nM | < 200 nM |  | > 2000 nM | 200 to 500 nM | 500 to 2000 nM | > 2000 nM | 
14 | Cc1cc2cnc(NC3CCN(S(=O)(=O)CC4CCCC4)CC3)nc2c(N2CC3(CCNC3)C2)n1 [Example 51, N-(1-((cyclopentylmethyl)sulfonyl)piperidin-4-yl)-6-methyl-8-(2,6-diazaspiro[3.4]octan-2-yl)pyrido[3,4-d]pyrimidin-2-amine] | 500 to 2000 nM | < 200 nM |  | 200 to 500 nM | < 200 nM | 500 to 2000 nM | 500 to 2000 nM | 
15 | CS(=O)(=O)N1CCC(Nc2ncc3cc(C4CC4)nc(N4CC(F)(F)C5(CNC5)C4)c3n2)CC1 [Example 60, 6-cyclopropyl-8-(8,8-difluoro-2,6-diazaspiro[3.4]octan-6-yl)-N-(1-(methylsulfonyl)piperidin-4-yl)pyrido[3,4-d]pyrimidin-2-amine] | < 200 nM | < 200 nM |  | < 200 nM | < 200 nM | 500 to 2000 nM | > 2000 nM | 
16 | Cc1cc2cnc(NC3CCN(S(=O)(=O)C4CC4)CC3)nc2c(N2CC(F)(F)C3(CNC3)C2)n1 [Example 62, N-(1-(cyclopropylsulfonyl)piperidin-4-yl)-8-(8,8-difluoro-2,6-diazaspiro[3.4]octan-6-yl)-6-methylpyrido[3,4-d]pyrimidin-2-amine] | < 200 nM | < 200 nM |  | < 200 nM | < 200 nM | 500 to 2000 nM | 500 to 2000 nM | 
